Experimental data from patent publication US20170029366A1, “INHIBITORS OF HISTONE LYSINE SPECIFIC DEMETHYLASE (LSD1) AND HISTONE DEACETYLASES (HDACS)” (THE JOHNS HOPKINS UNIVERSITY, priority 2014, published 2017).
Where “and” joins values, the source holds several entries; their conditions need not be identical. Identical values can stand only once. Counter-ions that a name gives are not always drawn.

Experiments:
[1] = biological target: T1, GST-LSD1 (Homo sapiens, UniProt O60341); assay: biochemical
[2] = biological target: T1, GST-LSD1; settings: for k(inact) / KI (inactivation): GST-LSD1, peroxidase-coupled assay; for k(inact)/Ki(inact): GST-LSD1 inactivation efficiency; for LSD1 inhibitory potency (in words): structure-activity comment on Table 1; for KI (inactivation): extrapolated to zero substrate
[3] = test system: LNCaP cells; assay: Drug combination experiments with bizine ([3H] thymidine, Combination Index); type: cell-based; settings: binary combination with bizine, 48 h, 3H-thymidine incorporation
[4] = test system: Immature primary cortical neurons; assay: Oxidative toxicity (HCA) and neuron viability assay (MTT); type: cell-based, Sprague Dawley rats; settings: 10 M phenelzine compared with 0.5 μM bizine
[5] = test system: H3K4Me2 in LNCaP cells; assay: Western blot of histone H3 marks in LNCaP cells; type: cell-based; settings: 48 h, concentrations up to 40 M

| k(inact) [2] | k(inact)/Ki(inact) [2] | SMILES | other results |
| --- | --- | --- | --- |
| 0.19 ± 0.036 min⁻¹ | 0.70 ± 0.31 µM⁻¹ min⁻¹ | Cl.Cl.NNCCc1ccc(NC(=O)c2ccccc2)cc1 [Compound 12a, N-[4-(2-Hydrazinylethyl)phenyl]benzamide dihydrochloride] | – |
| 0.20 ± 0.0087 min⁻¹ | 0.54 ± 0.054 µM⁻¹ min⁻¹ | Cl.Cl.NNCCc1ccc(NC(=O)Cc2ccccc2)cc1 [Compound 12b, N-[4-(2-Hydrazinylethyl)phenyl]-2-phenylacetamide dihydrochloride] | – |
| 0.22 ± 0.038 min⁻¹ | 0.86 ± 0.39 µM⁻¹ min⁻¹ | NNCCc1ccc(NC(=O)CCCCc2ccccc2)cc1.O=C(O)C(=O)O [Compound 12e, N-[4-(2-Hydrazinylethyl)phenyl]-5-phenylpentanamide oxalate] | – |
| 0.18 ± 0.034 min⁻¹ | 0.88 ± 0.46 µM⁻¹ min⁻¹ | CS(=O)(=O)Oc1ccccc1CCC(=O)Nc1ccc(CCNN)cc1.O=C(O)C(=O)O [Compound 12j, 2-(3-{[4-(2-Hydrazinylethyl)phenyl]amino}-3-oxopropyl)phenyl methanesulfonate oxalate] | KI (inactivation) [2]: 204 ± 98 nM |
| 0.17 ± 0.020 min⁻¹ | 0.76 ± 0.24 µM⁻¹ min⁻¹ | CS(=O)(=O)Oc1cccc(CCC(=O)Nc2ccc(CCNN)cc2)c1.O=C(O)C(=O)O [Compound 12k, 3-(3-{[4-(2-Hydrazinylethyl)phenyl]amino}-3-oxopropyl)phenyl methanesulfonate oxalate] | KI (inactivation) [2]: 223 ± 64 nM |
| 0.24 ± 0.033 min⁻¹ | 0.12 ± 0.045 µM⁻¹ min⁻¹ | CN(C(=O)CCCc1ccccc1)c1ccc(CCNN)cc1.O=C(O)C(=O)O [Compound 12l, N-[4-(2-Hydrazinylethyl)phenyl]-N-methyl-4-phenylbutanamide oxalate] | – |
| 0.22 ± 0.025 min⁻¹ | 0.14 ± 0.044 µM⁻¹ min⁻¹ | NNCCc1ccc(N(Cc2ccccc2)C(=O)CCCc2ccccc2)cc1.O=C(O)C(=O)O [Compound 12m, N-Benzyl-N-[4-(2-hydrazinylethyl)phenyl]-4-phenylbutanamide oxalate] | – |

Further lines, the molecule ahead of its results:

| SMILES | k(inact) [2] | k(inact)/Ki(inact) [2] | other results |
| --- | --- | --- | --- |
| CN(C)NCCc1ccccc1 [Compound 9b, 1,1-Dimethyl-2-(2-phenylethyl)hydrazine] | – | – | IC50 [1]: > 100 µM |
| Cl.Cl.NNCCCc1ccccc1 [Compound 9c, (3-Phenylpropyl)hydrazine dihydrochloride] | 0.32 ± 0.010 min⁻¹ | – | – |
| COc1ccc(CCCNN)cc1.Cl.Cl [Compound 9e, [3-(4-Methoxyphenyl)propyl]hydrazine dihydrochloride] | 0.15 ± 0.023 min⁻¹ | 0.019 ± 0.0087 µM⁻¹ min⁻¹ | LSD1 inhibitory potency (in words) [2]: made little difference |
| CNNCCCc1ccc(OC)cc1 [Compound 9f, 1-[3-(4-Methoxyphenyl)propyl]-2-methylhydrazine dihydrochloride] | – | – | IC50 [1]: > 100 µM |
| Cl.Cl.NNCCCCc1ccccc1 [Compound 9h, (4-Phenylbutyl)hydrazine dihydrochloride] | 0.12 ± 0.01 min⁻¹ | 0.0055 ± 0.00087 µM⁻¹ min⁻¹ | – |
| Cl.Cl.NNCCOc1ccccc1 [Compound 10a, (2-Phenoxyethyl)hydrazine dihydrochloride] | 0.15 ± 0.010 min⁻¹ | 0.0034 ± 0.00079 µM⁻¹ min⁻¹ | – |
| Cl.Cl.NNCCCOc1ccccc1 [Compound 10b, (3-Phenoxypropyl)hydrazine dihydrochloride] | 0.22 ± 0.020 min⁻¹ | 0.018 ± 0.0036 µM⁻¹ min⁻¹ | – |
| NNCCCN1CCOCC1 [Compound 11, 4-(3-Hydrazinylpropyl) morpholine, reference compound] | – | – | IC50 [1]: > 100 µM; LSD1 inhibitory potency (in words) [2]: not compatible with LSD1 inhibition |
| NNCCc1ccc(NC(=O)CCc2ccccc2)cc1.O=S(=O)(O)O [Compound 12c, N-[4-(2-Hydrazinylethyl)phenyl]-3-phenylpropanamide sulfate] | 0.24 ± 0.022 min⁻¹ | 0.92 ± 0.22 µM⁻¹ min⁻¹ | – |
| NNCCc1ccc(NC(=O)CCCc2ccc(Cl)cc2)cc1.O=S(=O)(O)O [Compound 12f, 4-(4-Chlorophenyl)-N-[4-(2-hydrazinylethyl)phenyl]butanamide sulfate] | 0.17 ± 0.018 min⁻¹ | 1.1 ± 0.35 µM⁻¹ min⁻¹ | – |
| COc1ccc(CCCC(=O)Nc2ccc(CCNN)cc2)cc1.O=S(=O)(O)O [Compound 12h, N-[4-(2-Hydrazinylethyl)phenyl]-4-(4-methoxyphenyl)butanamide sulfate] | 0.26 ± 0.042 min⁻¹ | 1.2 ± 0.57 µM⁻¹ min⁻¹ | KI (inactivation) [2]: 207 ± 89 nM |
| NNCCc1ccc(NC(=O)CCCc2ccc([N+](=O)[O-])cc2)cc1.O=S(=O)(O)O [Compound 12i, N-[4-(2-Hydrazinylethyl)phenyl]-4-(4-nitrophenyl)butanamide sulfate] | 0.21 ± 0.024 min⁻¹ | 0.74 ± 0.22 µM⁻¹ min⁻¹ | – |
| NNCCc1ccc(NC(=O)/C=C/c2ccccc2)cc1.O=S(=O)(O)O [Compound 13, (2E)-N-[4-(2-Hydrazinylethyl)phenyl]-3-phenylprop-2-enamide sulfate] | 0.17 ± 0.21 min⁻¹ | 1.7 ± 0.68 µM⁻¹ min⁻¹ | LSD1 inhibitory potency (in words) [2]: reduced LSD1 inhibitory potency |
| NNCCCc1ccc(OCc2ccccc2)cc1 [Compound 14, {3-[4-(Benxyloxy)phenyl]propyl}hydrazine] | 0.18 ± 0.038 min⁻¹ | 0.20 ± 0.11 µM⁻¹ min⁻¹ | KI (inactivation) [2]: 900 ± 450 nM; LSD1 inhibitory potency (in words) [2]: reduced LSD1 inhibitory potency |
| NNCCc1ccc(NC(=O)CCc2c[nH]c3ccccc23)cc1.O=S(=O)(O)O [Compound 15a, N-[4-(2-Hydrazinylethyl)phenyl]-3-(1H-indol-3-yl)propanamide sulfate] | 0.21 ± 0.030 min⁻¹ | 1.0 ± 0.41 µM⁻¹ min⁻¹ | – |
| Cc1[nH]c2ccccc2c1CCNCc1ccc(/C=C/C(=O)NO)cc1 [LBH-589] | – | – | effect of combination with bizine on cell inhibition (in words) [3]: additive to synergistic effects |
| Nc1ccccc1NC(=O)c1ccc(CNC(=O)OCc2cccnc2)cc1 [MS-275] | – | – | effect of combination with bizine on cell inhibition (in words) [3]: additive to synergistic effects |
| NNCCc1ccccc1 [phenelzine, reference compound] | 0.35 min⁻¹ and 0.35 ± 0.056 min⁻¹ | – | neuroprotection after HCA-treatment [4]: comparable; H3K4Me2 changes [5]: did not induce H3K4Me2 changes |
